Legend:
[1] = geometrical particle size distribution (PSD) by laser diffraction; assay type: physicochemical; conditions: mean ± SD, n = 3
Experimental: The geometrical PSD of bulk cisplatin, cisplatin microparticles from the size-reduction process, and cisplatin dry powder formulation, was measured as suspended and individualized particles. This was done using a Mastersizer 3000 laser diffractometer (Malvern Instruments Ltd., Worcestershire, UK) connected to a Hydro MV dispenser equipped with a 40 W ultrasonic probe (Malvern Instruments Ltd.). Measurements of bulk cisplatin and aliquots of cisplatin microparticles from the size-reduction process were performed in cisplatin-saturated isopropanol. […] The geometrical PSD of bulk cisplatin, cisplatin microparticles from the size-reduction process, and cisplatin dry powder formulation, was measured as suspended and individualized particles as described in the Example 1 and are presented in table 2.

M109-HiFR-LUC2 cells [2] = experiment: tumor growth by in vivo bioluminescence in orthotopic lung cancer mice model; design: species or system BALB/c mice; conditions: Example 4; p<0.05 for combination, p>0.05 for cisplatin IV
Experimental: The orthotopic intrapulmonary implantation procedure was performed using an adaption of the protocol described previously (Wauthoz et al., Nanomedicine 2015). Briefly, under anesthesia, 6 to 7-week-old BALB/c mice were grafted with 1.4 million M109-HiFR-LUC2 cells in 20 μL of a 50:50 v/v mix of folate-free RPMI/Matrigel® injected intercostally after incision of the skin and dissection of subcutaneous muscles. The different tissue incisions were stitched with a 3-0 silk (Ethicon®, St-Stevens-Woluwe, Belgium). The mice were closely observed until complete recovery. The therapeutic response of the M109 model to cisplatin was evaluated by in vivo optical imaging (bioluminescence) and survival analysis. Bioluminescence is directly proportional to the number of living M109-HiFR-LUC2 tumor cells. […]
The protocol described in example 3 has been reproduced, except that survival rates were also determined (no euthanasia on day 19 and no ex vivo bioluminescence analysis), the treatment started on day 6 according to the scheme table 3 below and that three groups of 4-15 mice were compared: […]
The protocol described in example 3 has been reproduced, except that survival rates were also determined (no euthanasia on day 19 and no ex vivo bioluminescence analysis), the treatment started on day 3 according to the scheme table 5 below and three groups of 8-16 mice were compared: […]

M109-HiFR-LUC2 cells [3] = experiment: ex vivo bioluminescence analysis of tumor localization (resected lungs vs chest cavity); assay type: in vivo, BALB/c mice; conditions: Example 3 additional experiment, day 19 post engraftment
Experimental: Briefly, under anesthesia, 6 to 7-week-old BALB/c mice were grafted with 1.4 million M109-HiFR-LUC2 cells in 20 μL of a 50:50 v/v mix of folate-free RPMI/Matrigel® injected intercostally after incision of the skin and dissection of subcutaneous muscles. The different tissue incisions were stitched with a 3-0 silk (Ethicon®, St-Stevens-Woluwe, Belgium). The mice were closely observed until complete recovery. The therapeutic response of the M109 model to cisplatin was evaluated by in vivo optical imaging (bioluminescence) and survival analysis. Bioluminescence is directly proportional to the number of living M109-HiFR-LUC2 tumor cells. Bioluminescence was performed up to day 19 post tumor cell engraftment using a Photonlmager RT (Biospace Lab, France) using the conventional supplier's protocol. Mice were weighted three times a week and sacrificed if their weight loss exceeded 20% from the beginning of the experiment or 15% from the last measurement or if they were suffocating. In these cases, the mouse death was notified as occurred the day after.
An additional experiment was performed evaluating cisplatin DPI according to example 1 vs cisplatin IV on the same lung cancer mice model. […]

[4] = Table 1, materials of Example 1
[5] = Table 2, materials of Example 2

N.N.[Cl][Pt][Cl] [Raw cisplatin, cisplatin]
D50 (volume median diameter) [1, 4]: 16.5 ± 3.6 μm
D[4,3] (volume mean diameter) [1, 4]: 18.9 ± 4.3 μm
D50 (volume median diameter) [1, 5]: 6.3 ± 0.1 μm
D[4,3] (volume mean diameter) [1, 5]: 7.1 ± 0.2 μm

N.N.[Cl][Pt][Cl] [cisplatin IV, cisplatin]
significance of the decrease in tumor growth versus untreated control (1-way ANOVA) (M109-HiFR-LUC2 cells [2]): not
tumor growth in the chest, cisplatin IV compared with cisplatin DPI (FIG. 3) (M109-HiFR-LUC2 cells [3]; chest cavity = loco-regional metastases): decrease of tumor growth in the chest
tumor growth in the lungs, cisplatin IV compared with cisplatin DPI (FIG. 3) (M109-HiFR-LUC2 cells [3]; resected lungs = primary lung tumors): similar

— US20220023552A1, “KIT FOR INHALED CHEMOTHERAPY, AND TREATMENT OF LUNG CANCER WITH SAID KIT” (UNIVERSITÉ LIBRE DE BRUXELLES, priority 2018, published 2022)
